Test results published in patent US7772241B2, “Variolin derivatives and their use as antitumor agents” (Pharma Mar S.A., priority 2001, dated 2010).

Experiments:
LoVo-Dox = test: Inhibition of cells growth by colorimetric (SRB) assay, LoVo-Dox; settings: for GI50 / CC50: Homo sapiens, 48 h; for GI50: read-out: GI50 LOVO-DOX, SRB assay, 48 hours exposure; for CC50: read-out: LC50 LOVO-DOX, SRB assay, 48 hours exposure; for TGI LOVO-DOX: SRB assay, 48 hours exposure
Procedure, shortened: (§1)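 Human tumour cells in RPMI 1640 with 10% FBS were seeded at 5×10^3 cells/well, allowed to attach for 18 h, then exposed to samples at 10 to 10^−8 μg/ml for 48 h. Growth was measured by SRB staining after TCA fixation, with absorbance read at 490 nm in triplicate wells.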

A-549 = test: Inhibition of cells growth by colorimetric (SRB) assay, A-549; settings: for GI50 / CC50: Homo sapiens, A549, 48 h; for GI50: read-out: GI50 A-549, SRB assay, 48 hours exposure; for CC50: read-out: LC50 A-549, SRB assay, 48 hours exposure; for TGI A-549: SRB assay, 48 hours exposure
Procedure, shortened: as §1

IGROV-ET = test: Inhibition of cells growth by colorimetric (SRB) assay, IGROV-ET; settings: for GI50 / CC50: Homo sapiens, 48 h; for GI50: read-out: GI50 IGROV-ET, SRB assay, 48 hours exposure; for CC50: read-out: LC50 IGROV-ET, SRB assay, 48 hours exposure; for TGI IGROV-ET: SRB assay, 48 hours exposure
Procedure, shortened: as §1

SK-OV-3 = test: Inhibition of cells growth by colorimetric (SRB) assay, SK-OV-3; settings: for GI50 / CC50: Homo sapiens, SK-OV-3, 48 h; for GI50: read-out: GI50 SKOV-3, SRB assay, 48 hours exposure; for CC50: read-out: LC50 SKOV-3, SRB assay, 48 hours exposure; for TGI SKOV-3: SRB assay, 48 hours exposure
Procedure, shortened: as §1

PANC-1 = test: Inhibition of cells growth by colorimetric (SRB) assay, PANC-1; settings: for GI50 / CC50: Homo sapiens, PANC-1, 48 h; for GI50: read-out: GI50 PANC-1, SRB assay, 48 hours exposure; for CC50: read-out: LC50 PANC-1, SRB assay, 48 hours exposure; for TGI PANC-1: SRB assay, 48 hours exposure
Procedure, shortened: as §1

DU-145 = test: Inhibition of cells growth by colorimetric (SRB) assay, DU-145; settings: for GI50 / CC50: Homo sapiens, DU-145, 48 h; for GI50: read-out: GI50 DU-145, SRB assay, 48 hours exposure; for CC50: read-out: LC50 DU-145, SRB assay, 48 hours exposure; for TGI DU-145: SRB assay, 48 hours exposure
Procedure, shortened: as §1

LoVo = test: Inhibition of cells growth by colorimetric (SRB) assay, LoVo; settings: for GI50 / CC50: Homo sapiens, LoVo, 48 h; for GI50: read-out: GI50 LOVO, SRB assay, 48 hours exposure; for CC50: read-out: LC50 LOVO, SRB assay, 48 hours exposure; for TGI LOVO: SRB assay, 48 hours exposure
Procedure, shortened: as §1

HMEC1 = test: Inhibition of cells growth by colorimetric (SRB) assay, HMEC1; settings: for GI50: Homo sapiens, HMEC-1, 48 h, read-out: GI50 H-MEC-1, SRB assay, 48 hours exposure; for TGI H-MEC-1: SRB assay, 48 hours exposure, in M (unit assumed)
[1] = as above; settings: human, HMEC1 cells, LC50 H-MEC-1, SRB assay, 48 hours exposure
IGROV-1 = test: Inhibition of cells growth by colorimetric (SRB) assay, IGROV-1; settings: for GI50 / CC50: Homo sapiens, IGROV-1, 48 h; for GI50: read-out: GI50 IGROV, SRB assay, 48 hours exposure; for CC50: read-out: LC50 IGROV, SRB assay, 48 hours exposure; for TGI IGROV: SRB assay, 48 hours exposure
Procedure, shortened: as §1

SK-BR-3 = test: Inhibition of cells growth by colorimetric (SRB) assay, SK-BR-3; settings: for GI50 / CC50: Homo sapiens, SK-BR-3, 48 h; for GI50: read-out: GI50 SK-BR-3, SRB assay, 48 hours exposure; for CC50: read-out: LC50 SK-BR-3, SRB assay, 48 hours exposure; for TGI SK-BR-3: SRB assay, 48 hours exposure
Procedure, shortened: as §1

HT-29 = test: Inhibition of cells growth by colorimetric (SRB) assay, HT-29; settings: for GI50 / CC50: Homo sapiens, HT-29, 48 h; for GI50: read-out: GI50 HT-29, SRB assay, 48 hours exposure; for CC50: read-out: LC50 HT-29, SRB assay, 48 hours exposure; for TGI HT-29: SRB assay, 48 hours exposure
Procedure, shortened: as §1

SK-MEL-28 = test: Inhibition of cells growth by colorimetric (SRB) assay, SK-MEL-28; settings: for GI50 / CC50: Homo sapiens, SK-MEL-28, 48 h; for GI50: read-out: GI50 MEL-28, SRB assay, 48 hours exposure; for CC50: read-out: LC50 MEL-28, SRB assay, 48 hours exposure; for TGI MEL-28: SRB assay, 48 hours exposure
Procedure, shortened: as §1

LNCaP = test: Inhibition of cells growth by colorimetric (SRB) assay, LNCaP; settings: for GI50 / CC50: Homo sapiens, LNCaP, 48 h; for GI50: read-out: GI50 LN-caP, SRB assay, 48 hours exposure; for CC50: read-out: LC50 LN-caP, SRB assay, 48 hours exposure; for TGI LN-caP: SRB assay, 48 hours exposure
Procedure, shortened: as §1

K-562 = test: Inhibition of cells growth by colorimetric (SRB) assay, K-562; settings: for GI50 / CC50: Homo sapiens, K562, 48 h; for GI50: read-out: GI50 K-562, SRB assay, 48 hours exposure; for CC50: read-out: LC50 K-562, SRB assay, 48 hours exposure; for TGI K-562: SRB assay, 48 hours exposure
Procedure, shortened: as §1

**Q.** Which results are given for Nc1nccc(-c2c3cc(Cl)cnc3n3c(N)nccc23)n1 [Compound 49]?
**A.** GI50 (LoVo-Dox): 2.11 µM; CC50 (LoVo-Dox): 27.6 µM; TGI LOVO-DOX (LoVo-Dox): 7.86E−06; GI50 (A-549): 2.11 µM; CC50 (A-549): 32.1 µM; TGI A-549 (A-549): 9.21E−06; GI50 (IGROV-ET): 4.23 µM; CC50 (IGROV-ET): 32.1 µM; TGI IGROV-ET (IGROV-ET): 1.20E−05; GI50 (SK-OV-3): 5.42 µM; CC50 (SK-OV-3): 32.1 µM; TGI SKOV-3 (SK-OV-3): 1.50E−05; GI50 (PANC-1): 10.7 µM; CC50 (PANC-1): 32.1 µM; TGI PANC-1 (PANC-1): 3.21E−05; GI50 (DU-145): 5.33 µM; CC50 (DU-145): 32.1 µM; TGI DU-145 (DU-145): 1.38E−05; GI50 (LoVo): 2.37 µM; CC50 (LoVo): 32.1 µM; TGI LOVO (LoVo): 1.16E−05; GI50 (HMEC1): 0.456 µM; TGI H-MEC-1 (HMEC1): 4.59E−06; CC50 at 48 h [1]: 8.73 µM; GI50 (IGROV-1): 4.68 µM; CC50 (IGROV-1): 29.3 µM; TGI IGROV (IGROV-1): 1.17E−05; GI50 (SK-BR-3): 7.19 µM; CC50 (SK-BR-3): 32.1 µM; TGI SK-BR-3 (SK-BR-3): 1.86E−05; GI50 (HT-29): 12 µM; CC50 (HT-29): 32.1 µM; TGI HT-29 (HT-29): 3.21E−05; GI50 (SK-MEL-28): 6.35 µM; CC50 (SK-MEL-28): 32.1 µM; TGI MEL-28 (SK-MEL-28): 1.43E−05; GI50 (LNCaP): 1.26 µM; CC50 (LNCaP): 19.5 µM; TGI LN-caP (LNCaP): 4.30E−06; GI50 (K-562): 13.9 µM; CC50 (K-562): 32.1 µM; TGI K-562 (K-562): 2.77E−05

**Q.** What does the source list for Nc1nccc(-c2c3cc(F)c(Cl)nc3n3c(N)nccc23)n1 [Compound 50]?
**A.** GI50 (LoVo-Dox): 12.6 µM; CC50 (LoVo-Dox): ≥ 30.3 µM; TGI LOVO-DOX (LoVo-Dox): 3.03E−05; GI50 (A-549): 5.25 µM; CC50 (A-549): ≥ 30.3 µM; TGI A-549 (A-549): 3.03E−05; GI50 (IGROV-ET): 12.9 µM; CC50 (IGROV-ET): ≥ 30.3 µM; TGI IGROV-ET (IGROV-ET): 3.03E−05; GI50 (SK-OV-3): 15.8 µM; CC50 (SK-OV-3): ≥ 30.3 µM; TGI SKOV-3 (SK-OV-3): 3.03E−05; GI50 (PANC-1): ≥ 30.3 µM; CC50 (PANC-1): ≥ 30.3 µM; TGI PANC-1 (PANC-1): 3.03E−05; GI50 (DU-145): 16.5 µM; CC50 (DU-145): ≥ 30.3 µM; TGI DU-145 (DU-145): 3.03E−05; GI50 (LoVo): 12 µM; CC50 (LoVo): ≥ 30.3 µM; TGI LOVO (LoVo): 3.03E−05; GI50 (HMEC1): 8.01 µM; TGI H-MEC-1 (HMEC1): 2.44E−05; CC50 at 48 h [1]: ≥ 30.3 µM; GI50 (IGROV-1): 20.3 µM; CC50 (IGROV-1): ≥ 30.3 µM; TGI IGROV (IGROV-1): 3.03E−05; GI50 (SK-BR-3): 11.6 µM; CC50 (SK-BR-3): ≥ 30.3 µM; TGI SK-BR-3 (SK-BR-3): 3.03E−05; GI50 (HT-29): ≥ 30.3 µM; CC50 (HT-29): ≥ 30.3 µM; TGI HT-29 (HT-29): 3.03E−05; GI50 (SK-MEL-28): ≥ 30.3 µM; CC50 (SK-MEL-28): ≥ 30.3 µM; TGI MEL-28 (SK-MEL-28): 3.03E−05; GI50 (LNCaP): 0.886 µM; CC50 (LNCaP): ≥ 30.3 µM; TGI LN-caP (LNCaP): 1.88E−06; GI50 (K-562): ≥ 30.3 µM; CC50 (K-562): ≥ 30.3 µM; TGI K-562 (K-562): 3.03E−05
